Experimental data from patent EP4574773A1, “DEVICE AND METHOD FOR TREATING CO[…] EFFLUENTS” (Université Gustave Eiffel, priority 2023, dated 2025).

Tested on: heterotrophic micro-organisms
Assay: BOD analyses with increasing perchlorate concentrations (respirometric, activated sludge)
Assay type: cell-based
Settings: activated sludge from a MBBR reactor; perchlorate 5 and 35 mg L^-1; data not shown
Experimental: BOD analyses : For these measurements, the range was 0 - 400 mgO2 L^-1, the BOD test solutions were composed of: 141.6 mL of a mixture of carboxylic acids: oxalic acid (625 mg L^-1), maleic acid (137 mg L^-1), glyoxylic acid (261 mg L^-1), and formic acid oxalic acid (321 mg L^-1); 10 mL of a buffer solution: KH2PO4 (8.6 g L^-1), K2HPO4 (21.75 g L^-1), (Na2HPO4,2H2O) (33.4 g L^-1), NH4Cl (1.7 g L^-1); 0.4 mL of- Allylthiourea (C4H8N2S) (1 g L^-1), and 1 mL of activated sludge from a MBBR reactor who had been previously fed with the raw MLL for 4 months, completed with 11 mL concentrate solutions of perchlorate to obtain respective concentrations in perchlorate of 5 and 35 mg L^-1 in the final 164 mL liquid volume.
BOD analyses with increasing perchlorate concentrations have been performed following a similar procedure as previously explained in the last section. […]

For `[O-][Cl+3]([O-])([O-])O` [perchlorate], the “effect on heterotrophic micro-organisms” value was “inihibiting effect”.
